Experimental data reported in ChEMBL document CHEMBL4808249, “Total synthesis and biological evaluation of 7-hydroxyneolamellarin A as hypoxia-inducible factor-1α inhibitor for cancer therapy” (Bioorg Med Chem Lett, 2021).
The source made the active and inactive calls. The calls are words filed in the database; no cut-off is given here.

What was measured:
HeLa [1] = experiment: Downregulation of HIF-1 alpha expression in human HeLa cells at 50 to 150 umol/L incubated under normoxia conditions for 4 hrs in presence of CoCl2 by Western blot analysis; assay type: functional, cell-based; details: dose 50-150 µmol/L
HeLa [2] = experiment: Downregulation of HIF-1 alpha expression in human HeLa cells at 50 to 150 umol/L incubated under hypoxia conditions for 4 hrs by Western blot analysis; assay type: functional, cell-based; details: dose 50-150 µmol/L
HeLa [3] = experiment: Downregulation of HIF-1 alpha expression in human HeLa cells at 100 to 150 umol/L incubated under hypoxia conditions for 4 hrs in presence of proteasome inhibitor, MG132 by Western blot analysis; assay type: functional, cell-based; details: dose 100-150 µmol/L
HeLa [4] = experiment: Downregulation of HIF-1beta expression in human HeLa cells at 50 to 150 umol/L incubated under hypoxia conditions for 4 hrs by western blot analysis; assay type: functional, cell-based; details: dose 50-150 µmol/L
[5] = Toxicity in BALB/c mouse xenografted with mouse 4T1 cells assessed as effect on body weight at 15 mg/kg, iv administered every 2 days starting from day 7 post-inoculation and measured on day 24; assay type: organism-based; details: in vivo, 432 h, time 18 day
HeLa [6] = experiment: Antiinvasive activity in human HeLa cells assessed as inhibition of cell invasion at 50 to 150 umol/L incubated under hypoxia condition for 36 hrs by transwell invasion assay; assay type: functional, cell-based; details: dose 50-150 µmol/L
[7] = Toxicity in BALB/c mouse xenografted with mouse 4T1 cells assessed as effect on spleen morphology at 15 mg/kg, iv administered every 2 days starting from day 7 post-inoculation and measured on day 24 by Hematoxyin-eosin staining based analysis; assay type: organism-based; details: in vivo, 432 h, time 18 day
HUVEC = experiment: Inhibition of angiogenesis in human HUVEC cells assessed as disruption of tube formation at 150 umol/L incubated under hypoxia condition for 6 hrs by Matrigel based analysis; assay type: functional, cell-based; details: dose 150.0 µmol/L
HeLa [8] = experiment: Inhibition of cell migration in human HeLa cells at 10 to 50 umol/L incubated under hypoxia condition for 36 hrs by wound healing assay; assay type: functional, cell-based; details: dose 10-50 µmol/L
4T1 [9] = experiment: Downregulation of HIF-1alpha expression in mouse 4T1 cells at 50 to 150 umol/L incubated under hypoxia condition for 4 hrs by Western blot analysis; assay type: functional, cell-based; details: dose 50-150 µmol/L
HeLa [10] = experiment: Downregulation of HIF-1 alpha expression in human HeLa cells assessed as half life of the protein at 150 umol/L incubated under CoCl2-stimulated hypoxia conditions for 4 hrs followed by incubation with compound and protein translation inhibitor, CHX under normoxia conditions for 240 mins by Western blot analysis (reference value: 33.4 mins); assay type: functional, cell-based; details: dose 150.0 µmol/L
HeLa [11] = experiment: Inhibition of colony formation in human HeLa cells incubated under hypoxia condition for 10 days; assay type: functional, cell-based; details: dose 5-50 µmol/L, time 10.0 day
4T1 [12] = experiment: Downregulation of HIF-1alpha protein expression in tumor tissue of BALB/c mouse xenografted with mouse 4T1 cells at 15 mg/kg, iv administered every 2 days starting from day 7 post-inoculation and measured on day 24 by immunofluorescence analysis; assay type: functional, organism-based; details: time 18.0 day
MCF7 = experiment: Downregulation of HIF-1alpha expression in human MCF7 cells at 50 to 150 umol/L incubated under hypoxia condition for 4 hrs by Western blot analysis; assay type: functional, cell-based; details: dose 50-150 µmol/L
HeLa [13] = experiment: Downregulation of HIF-1alpha expression in human HeLa cells at 50 to 150 umol/L incubated under hypoxia condition for 4 hrs by immunofluorescence analysis; assay type: functional, cell-based; details: dose 50-150 µmol/L
[14] = Toxicity in BALB/c mouse xenografted with mouse 4T1 cells assessed as effect on liver morphology at 15 mg/kg, iv administered every 2 days starting from day 7 post-inoculation and measured on day 24 by Hematoxyin-eosin staining based analysis; assay type: organism-based; details: in vivo, 432 h, time 18 day
HeLa [15] = experiment: Cytotoxicity against human HeLa cells assessed as cell viability at 6.3 to 150 umol/L incubated under normoxic conditions for 24 hrs by MTT assay; assay type: cell-based; details: dose 6.3-150 µmol/L
4T1 [16] = experiment: Antitumor activity against mouse 4T1 cells xenografted in BALB/c mouse assessed as tumor growth inhibition at 15 mg/kg, iv administered every 2 days starting from day 7 post-inoculation and measured on day 24; assay type: functional, organism-based; details: time 18.0 day
HeLa [17] = experiment: Cytotoxicity against human HeLa cells assessed as cell viability at 6.3 to 150 umol/L incubated under hypoxia condition for 24 hrs by MTT assay; assay type: cell-based; details: dose 6.3-150 µmol/L
[18] = Toxicity in BALB/c mouse xenografted with mouse 4T1 cells assessed as effect on kidney morphology at 15 mg/kg, iv administered every 2 days starting from day 7 post-inoculation and measured on day 24 by Hematoxyin-eosin staining based analysis; assay type: organism-based; details: in vivo, 432 h, time 18 day
[19] = molecular target: T1, Hypoxia-inducible factor 1-alpha (Homo sapiens, UniProt Q16665); experiment: Inhibition of HIF-1alpha in human HeLa cells transfected with HRE-driven firefly luciferase gene pretreated with compound followed by incubation under normoxic condition for 1 hr followed by hypoxic condition for 12 hrs by dual luciferase reporter gene assay; assay type: cell-based
[20] = molecular target: T1, Hypoxia-inducible factor 1-alpha; experiment: Inhibition of HIF-1alpha in human HeLa cells assessed as reduction in VEGF mRNA level incubated under hypoxia condition for 12 hrs by RT-PCR analysis; assay type: cell-based; details: dose 25-100 µmol/L
Target sequence in this assay (Q16665 whole entry, looked up): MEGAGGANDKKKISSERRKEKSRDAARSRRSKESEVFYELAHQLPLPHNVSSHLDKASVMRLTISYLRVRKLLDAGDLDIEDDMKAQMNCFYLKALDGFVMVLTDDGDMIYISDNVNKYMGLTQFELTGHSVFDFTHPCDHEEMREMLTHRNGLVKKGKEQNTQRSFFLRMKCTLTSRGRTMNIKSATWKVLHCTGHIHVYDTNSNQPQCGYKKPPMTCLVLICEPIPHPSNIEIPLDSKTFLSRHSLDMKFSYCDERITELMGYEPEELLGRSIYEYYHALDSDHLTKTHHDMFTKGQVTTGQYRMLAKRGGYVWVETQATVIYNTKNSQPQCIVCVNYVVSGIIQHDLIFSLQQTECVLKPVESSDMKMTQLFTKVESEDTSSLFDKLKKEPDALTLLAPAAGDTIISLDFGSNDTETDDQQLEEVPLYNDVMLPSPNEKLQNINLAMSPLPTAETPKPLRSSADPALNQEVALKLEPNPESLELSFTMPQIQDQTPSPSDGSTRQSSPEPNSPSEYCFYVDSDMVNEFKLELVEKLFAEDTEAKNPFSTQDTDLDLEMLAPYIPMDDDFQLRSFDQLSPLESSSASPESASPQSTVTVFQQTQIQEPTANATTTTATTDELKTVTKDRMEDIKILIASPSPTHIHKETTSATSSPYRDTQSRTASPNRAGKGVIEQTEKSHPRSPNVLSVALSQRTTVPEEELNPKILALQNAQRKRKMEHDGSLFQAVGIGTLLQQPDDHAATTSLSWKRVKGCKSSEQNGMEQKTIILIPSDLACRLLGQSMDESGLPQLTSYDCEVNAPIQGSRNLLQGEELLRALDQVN

[21] = Toxicity in BALB/c mouse xenografted with mouse 4T1 cells assessed as effect on heart morphology at 15 mg/kg, iv administered every 2 days starting from day 7 post-inoculation and measured on day 24 by Hematoxyin-eosin staining based analysis; assay type: organism-based; details: in vivo, 432 h, time 18 day
[22] = Toxicity in BALB/c mouse xenografted with mouse 4T1 cells assessed as effect on heart morphology at 15 mg/kg, ip administered every 2 days starting from day 7 post-inoculation and measured on day 24 by Hematoxyin-eosin staining based analysis; assay type: organism-based; details: in vivo, 432 h, time 18 day
[23] = Toxicity in BALB/c mouse xenografted with mouse 4T1 cells assessed as effect on spleen morphology at 15 mg/kg, ip administered every 2 days starting from day 7 post-inoculation and measured on day 24 by Hematoxyin-eosin staining based analysis; assay type: organism-based; details: in vivo, 432 h, time 18 day
[24] = Toxicity in BALB/c mouse xenografted with mouse 4T1 cells assessed as effect on kidney morphology at 15 mg/kg, ip administered every 2 days starting from day 7 post-inoculation and measured on day 24 by Hematoxyin-eosin staining based analysis; assay type: organism-based; details: in vivo, 432 h, time 18 day
[25] = Toxicity in BALB/c mouse xenografted with mouse 4T1 cells assessed as effect on body weight at 15 mg/kg, ip administered every 2 days starting from day 7 post-inoculation and measured on day 24; assay type: organism-based; details: in vivo, 432 h, time 18 day
4T1 [26] = experiment: Antitumor activity against mouse 4T1 cells xenografted in BALB/c mouse assessed as tumor growth inhibition at 15 mg/kg, ip administered every 2 days starting from day 7 post-inoculation and measured on day 24; assay type: functional, organism-based; details: time 18.0 day
[27] = Toxicity in BALB/c mouse xenografted with mouse 4T1 cells assessed as effect on liver morphology at 15 mg/kg, ip administered every 2 days starting from day 7 post-inoculation and measured on day 24 by Hematoxyin-eosin staining based analysis; assay type: organism-based; details: in vivo, 432 h, time 18 day

For `O=C(C(O)c1ccc(O)cc1)n1cc(-c2ccc(O)cc2)c(-c2ccc(O)cc2)c1` (stereo not given) [7-(R/S)-HYDROXYLAMELLARIN A], the inhibition (HeLa [1]) was “Active”, the inhibition (HeLa [2]) was “Active” and the inhibition (HeLa [3]) was “Active”. For the same compound, the inhibition (HeLa [4]) was “inactive”, the Activity [5] was “Non-Toxic” and the Activity (HeLa [6]) was “Active”. The Activity [7] was “Non-Toxic”, the inhibition (HUVEC) was “Active” and the inhibition (HeLa [8]) was “Active”. For the same compound, the inhibition (4T1 [9]) was “Active”, the T1/2 (HeLa [10]) was 10.4 min and the inhibition (HeLa [11]) was “Dose-Dependent Effect”. The inhibition (4T1 [12]) was “Active”, the inhibition (MCF7) was “Active” and the inhibition (HeLa [13]) was “Active”. The Activity [14] was “Non-Toxic”, the Activity (HeLa [15]) was “Non-Toxic” and the Activity (4T1 [16]) was “Active”. The Activity (HeLa [17]) was “Non-Toxic”, the Activity [18] was “Non-Toxic” and the IC50 [19] was 23 µM. The inhibition ([19]; time 13.0 hrs) was “Dose-Dependent Effect”, the inhibition [20] was “Dose-Dependent Effect” and the Activity [21] was “Non-Toxic”.
In the case of `C=CCNC1=C2C[C@@H](C)C[C@H](OC)[C@H](O)[C@@H](C)/C=C(\C)[C@H](OC(N)=O)[C@@H](OC)/C=C\C=C(/C)C(=O)NC(=CC1=O)C2=O` (stereo in doubt) [TANESPIMYCIN], the Activity [22] is reported as “Non-Toxic”, the Activity [23] is reported as “Non-Toxic” and the Activity [24] is reported as “Non-Toxic”. The Activity [25] was “Non-Toxic”, the Activity (4T1 [26]) was “Active” and the Activity [27] was “Non-Toxic”.
